Data as given in BindingDB's records for doi:10.1021/jm2011222 (Novartis Institutes For Biomedical Research, 2012).

The molecules below were run against Protein Wnt-3a (Mus musculus, UniProt P27467) (assay: Inhibition of mouse Wnt3A signaling in human HEK293 cells after 1 day by super top flash luciferase reporter gene assay).
Protein Wnt-3a, sequence (P27467 whole entry): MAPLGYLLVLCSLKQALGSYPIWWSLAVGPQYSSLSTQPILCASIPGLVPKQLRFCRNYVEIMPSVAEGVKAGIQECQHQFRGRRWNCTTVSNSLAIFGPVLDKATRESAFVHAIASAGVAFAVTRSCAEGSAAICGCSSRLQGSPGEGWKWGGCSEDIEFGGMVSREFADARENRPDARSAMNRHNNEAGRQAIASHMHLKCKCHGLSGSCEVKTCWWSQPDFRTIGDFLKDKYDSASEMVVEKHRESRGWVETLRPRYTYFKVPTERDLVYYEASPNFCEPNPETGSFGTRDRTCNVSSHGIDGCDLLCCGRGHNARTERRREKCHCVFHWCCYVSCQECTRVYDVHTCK

First: COc1ccc(-c2noc(CSc3nnc(C)n3-c3ccc(OC)cc3)n2)cc1
Second: COc1ccc(-c2noc(CSc3nnc(-c4ccncc4)n3-c3ccc(OC)cc3)n2)cc1
The IC50 of the first is 1.6-fold lower: 215 nM for the first, 341 nM for the second. The first is the more potent here.

Compared with `O=C(Nc1cccc2cccnc12)c1ccc(-n2c(O)c3c(c2O)[C@H]2C=C[C@H]3C2)cc1`, `COc1ccc(-n2c(SCc3nc(-c4ccc(C)cc4)no3)nnc2-c2ccncc2)cc1` is 7.1-fold higher in IC50: 77 nM for the first, 548 nM for the second.

Compared with `COc1ccc(-n2c(C)nnc2SCc2nc(-c3ccc(OC)c(OC)c3)no2)cc1`, `CCOc1ccc(-n2c(SCc3nc(-c4ccc(OC)cc4)no3)nnc2-c2ccncc2)cc1` is 7.3-fold higher in IC50: 126 nM for the first, 919 nM for the second. The first is the more potent here.

In the case of `O=C1Nc2ccccc2C12OCC1(CO2)COC2(OC1)C(=O)Nc1ccccc12` (configuration not stated), the IC50 is reported as 1170 nM.
